Converted amounts (≈) assume the structure as drawn.
System: Candida albicans
Assay: Antifungal activity against Candida albicans assessed as growth inhibition
Format: functional
Details: for MIC: Candida albicans

Row | SMILES | -logMIC | MIC [µg/mL]
1 | Cc1nc([N+](=O)[O-])cn1CCC(=O)Nc1ccccc1 | 3 | 1000 (≈ 3650 µM)
2 | OC(Cn1ccnc1)c1ccc(Cl)cc1 (configuration not stated) | 2.4 | 250 (≈ 1120 µM)
3 | Cc1nc([N+](=O)[O-])cn1CCC(=O)Nc1cccc2ccccc12 | 2.74 | 500 (≈ 1540 µM)
4 | Cc1ncc([N+](=O)[O-])n1CCC(=O)Nc1cccc(O)c1 | 2.9 | 800 (≈ 2760 µM)
5 | Cc1nccn1CCC(=O)Nc1cccc(O)c1 | 2.9 | 800 (≈ 3260 µM)
6 | Cc1nccn1CC(=O)c1ccc(Cl)cc1 | 2.26 | 200 (≈ 852 µM)
7 | Cc1ccc(NC(=S)Nn2c(-c3ccc([N+](=O)[O-])cc3)cnc2S)cc1 | 0.6 | 3.91 (≈ 10.1 µM)
8 | Cc1ncc([N+](=O)[O-])n1CCOC(c1ccccc1)c1ccccc1S (configuration not stated) | 2.6 | 400 (≈ 1080 µM)
9 | Cc1nc([N+](=O)[O-])cn1CCC(=O)Nc1ccccc1[N+](=O)[O-] | 2.95 | 1000 (≈ 3130 µM)
10 | Cc1nccn1CC(=O)Nc1cccc(O)c1 | 2.9 | 800 (≈ 3460 µM)
11 | Cc1ncc([N+](=O)[O-])n1CN(C(C)C)C(C)C | 2 | 100 (≈ 416 µM)
12 | Cc1ncc([N+](=O)[O-])n1CCOC(c1ccccc1)c1cnccn1 (configuration not stated) | 2.6 | 400 (≈ 1180 µM)
13 | Cc1nc([N+](=O)[O-])cn1CCC(=O)Nc1c(Br)cc(Br)cc1Br | 2.64 | 500 (≈ 979 µM)
14 | Cc1nccn1CC(O)c1ccc(Cl)cc1 (configuration not stated) | 2.31 | 200 (≈ 845 µM)
15 | Cc1ncc([N+](=O)[O-])n1CNc1ccccc1 | 1.94 | 100 (≈ 431 µM)
16 | Cc1ncc([N+](=O)[O-])n1CC(O)COc1ccccc1 (configuration not stated) | 2.06 | 100 (≈ 361 µM)
17 | Cc1ncc([N+](=O)[O-])n1CCNc1ccccc1 | 1.7 | 50 (≈ 203 µM)
18 | Cc1ncc([N+](=O)[O-])n1CC(=O)CNc1ccc(Cl)cc1 | 2.6 | 800 (≈ 2590 µM)
19 | Cc1nccn1CC(O)c1ccc(Br)cc1 (configuration not stated) | 2.35 | 200 (≈ 711 µM)
20 | Cc1ncc([N+](=O)[O-])n1CCNC(C)C | 1.39 | 25 (≈ 118 µM)
21 | Cc1ncc([N+](=O)[O-])n1CCNc1ccc([N+](=O)[O-])cc1 | 1.1 | 12.5 (≈ 42.9 µM)
22 | CCCCNCC(O)Cn1c([N+](=O)[O-])cnc1C (configuration not stated) | 1.99 | 100 (≈ 390 µM)

Row | SMILES | -logMIC | MIC [µg/mL]
23 | Cc1nc([N+](=O)[O-])cn1CCC(=O)Nc1ccccc1S | 2.68 | 500 (≈ 1630 µM)
24 | O=C(Cn1ccnc1)c1ccc(Cl)cc1 | 2 | 100 (≈ 453 µM)
25 | OC(Cn1ccnc1)c1ccc(Br)cc1 (configuration not stated) | 2.3 | 200 (≈ 749 µM)
26 | Cc1nccn1CC(O)c1ccc(-c2ccccc2)cc1 (configuration not stated) | 2.33 | 200 (≈ 719 µM)
27 | Cc1ncc([N+](=O)[O-])n1C(C)C(=O)Nc1cccc(O)c1 (configuration not stated) | 2.6 | 400 (≈ 1380 µM)
28 | CCCNCCn1c([N+](=O)[O-])cnc1C | 1.68 | 50 (≈ 236 µM)
29 | O=C(Cn1ccnc1)c1ccc(Br)cc1 | 2.3 | 250 (≈ 943 µM)
30 | Cc1ccccc1NC(=S)Nn1c(-c2ccc([N+](=O)[O-])cc2)cnc1S | 1.5 | 31.2 (≈ 81.1 µM)
31 | S=C(Nc1cccc2ccccc12)Nn1ccnc1-c1ccc(Br)cc1 | 2.01 | 100 (≈ 236 µM)
32 | Cc1nc([N+](=O)[O-])cn1CC(CNc1ccccc1)Nc1ccccc1 (configuration not stated) | 2.3 | 200 (≈ 569 µM)
33 | Cc1ccccc1NC(=S)Nn1ccnc1-c1ccc(Cl)cc1 | 2.03 | 100 (≈ 292 µM)
34 | COc1ccc(NC(=S)Nn2c(-c3ccc([N+](=O)[O-])cc3)cnc2S)cc1 | 0.29 | 1.95 (≈ 4.86 µM)
35 | Cc1nc([N+](=O)[O-])cn1CCC(=O)Nc1ccccc1Cl | 2.93 | 1000 (≈ 3240 µM)
36 | Cc1nccn1CC(=O)c1ccc(Br)cc1 | 2.48 | 300 (≈ 1070 µM)
37 | Cc1ncc([N+](=O)[O-])n1CCOC(c1ccccc1)c1cccs1 (configuration not stated) | 2.6 | 400 (≈ 1160 µM)
38 | Cc1nccn1CC(=O)c1ccc([N+](=O)[O-])cc1 | 2.9 | 200 (≈ 816 µM)
39 | Cc1ccc(NC(=S)Nn2ccnc2-c2ccc(Cl)cc2)cc1 | 2.69 | 500 (≈ 1460 µM)
40 | Cc1ncc([N+](=O)[O-])n1CCOC(Cc1cccs1)c1ccccc1 (configuration not stated) | 2.6 | 400 (≈ 1120 µM)
41 | Cc1ncc([N+](=O)[O-])n1CCN(C(C)C)C(C)C | 1.38 | 25 (≈ 98.3 µM)
42 | O=C(Cn1ccnc1)Nc1cccc(O)c1 | 2.9 | 800 (≈ 3680 µM)
43 | Cc1ncc([N+](=O)[O-])n1CCNc1ccccc1[N+](=O)[O-] | 2 | 100 (≈ 343 µM)
44 | Cc1ccccc1OCC(O)Cn1c([N+](=O)[O-])cnc1C (configuration not stated) | 2 | 100 (≈ 343 µM)

Row | SMILES | -logMIC | MIC [µg/mL]
45 | Cc1nc([N+](=O)[O-])cn1CCC(=O)Nc1cccc(Cl)c1 | 2.71 | 500 (≈ 1620 µM)
46 | O=C(CCn1ccnc1)Nc1cccc(O)c1 | 2.9 | 800 (≈ 3460 µM)
47 | Cc1ncc([N+](=O)[O-])n1CC(=O)Nc1cccc(O)c1 | 2.9 | 800 (≈ 2900 µM)
48 | Cc1ccc(NCn2c([N+](=O)[O-])cnc2C)cc1 | 1.98 | 100 (≈ 406 µM)
49 | Cc1ncc([N+](=O)[O-])n1CC(O)COc1cccc2ccccc12 (configuration not stated) | 2.06 | 100 (≈ 305 µM)
50 | Cc1ncc([N+](=O)[O-])n1CC(O)COc1ccc2ccccc2c1 (configuration not stated) | 2.69 | 500 (≈ 1530 µM)
51 | COc1ccc(NC(=S)Nn2ccnc2-c2ccc(Cl)cc2)cc1 | 2.02 | 100 (≈ 279 µM)
52 | Cc1ncc([N+](=O)[O-])n1CNc1cccc2ccccc12 | 2 | 100 (≈ 354 µM)
53 | S=C(Nc1cccc2ccccc12)Nn1ccnc1-c1ccc(Cl)cc1 | 2.42 | 250 (≈ 660 µM)
54 | O=[N+]([O-])c1ccc(-c2cnc(S)n2NC(=S)Nc2cccc3ccccc23)cc1 | 2.7 | > 500
55 | COc1ccccc1NCC(=O)Cn1cc([N+](=O)[O-])nc1C | 2.6 | 400 (≈ 1310 µM)
56 | Cc1nccn1CC(=O)c1ccc(-c2ccccc2)cc1 | 2.48 | 300 (≈ 1090 µM)
57 | Cc1nc([N+](=O)[O-])cn1CC(=O)CNc1ccccc1 | 2.6 | 400 (≈ 1460 µM)
58 | COc1ccccc1NC(=S)Nn1ccnc1-c1ccc(Cl)cc1 | 1.97 | 100 (≈ 279 µM)
59 | Cc1ccccc1NC(=S)Nn1ccnc1-c1ccc(Br)cc1 | 2.01 | 100 (≈ 258 µM)
60 | Cc1ccc(NC(=S)Nn2ccnc2-c2ccc(Br)cc2)cc1 | 2.41 | 250 (≈ 645 µM)
61 | Cc1ncc([N+](=O)[O-])n1CC(O)CNCC(C)C (configuration not stated) | 1.99 | 100 (≈ 390 µM)
62 | Cc1ccc(NCC(=O)Cn2cc([N+](=O)[O-])nc2C)cc1 | 2.6 | 400 (≈ 1390 µM)
63 | COc1ccccc1NC(=S)Nn1ccnc1-c1ccc(Br)cc1 | 2.4 | 250 (≈ 620 µM)
64 | Cc1nc([N+](=O)[O-])cn1CC(=O)CNc1cccc(Cl)c1 | 2.6 | 400 (≈ 1300 µM)
65 | Cc1nccn1CC(O)c1ccc([N+](=O)[O-])cc1 (configuration not stated) | 2.39 | 300 (≈ 1210 µM)
66 | COc1ccc(NC(=S)Nn2ccnc2-c2ccc(Br)cc2)cc1 | 2 | 100 (≈ 248 µM)

Source: ChEMBL document CHEMBL3045100, “Comparative molecular similarity indices analysis of some 1-substituted imidazole analogs as Candida albicans P450-demethylase inhibitors” (2013)
